Results as given in ChEMBL document CHEMBL4616721, “Nitrogen-Walk Approach to Explore Bioisosteric Replacements in a Series of Potent A2B Adenosine Receptor Antagonists” (J Med Chem, 2020).

Columns and labels:
[1] = molecular target: T1, Adenosine receptor A1 (Homo sapiens) (UniProt P30542); assay: Displacement [3H]DPCPX from human adenosine A1 receptor expressed in CHO cell membranes at 1 uM incubated for 60 mins by scintillation counting method relative to control
T1 sequence (whole entry): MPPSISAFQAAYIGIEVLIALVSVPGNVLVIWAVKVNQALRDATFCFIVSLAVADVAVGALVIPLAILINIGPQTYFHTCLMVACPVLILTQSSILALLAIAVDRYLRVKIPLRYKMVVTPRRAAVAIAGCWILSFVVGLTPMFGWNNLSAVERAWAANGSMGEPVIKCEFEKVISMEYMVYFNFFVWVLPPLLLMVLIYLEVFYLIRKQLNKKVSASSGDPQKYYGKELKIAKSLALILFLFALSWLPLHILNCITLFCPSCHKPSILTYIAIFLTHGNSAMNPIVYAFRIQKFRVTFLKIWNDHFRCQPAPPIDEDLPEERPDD

[2] = molecular target: T2, Adenosine receptor A3 (Homo sapiens) (UniProt P0DMS8); assay: Displacement [3H]NECA from adenosine A3 receptor in human HeLa cell membranes at 1 uM incubated for 180 mins by scintillation counting method relative to control
T2 sequence (whole entry): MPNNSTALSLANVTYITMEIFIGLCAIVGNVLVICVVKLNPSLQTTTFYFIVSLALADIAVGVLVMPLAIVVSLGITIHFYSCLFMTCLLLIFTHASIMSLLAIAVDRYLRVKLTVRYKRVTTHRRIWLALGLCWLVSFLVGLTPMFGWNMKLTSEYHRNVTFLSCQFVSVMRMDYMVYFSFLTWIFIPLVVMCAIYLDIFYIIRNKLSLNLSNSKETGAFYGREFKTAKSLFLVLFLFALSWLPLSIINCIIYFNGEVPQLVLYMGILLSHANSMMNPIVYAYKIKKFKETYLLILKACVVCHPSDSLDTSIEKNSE

Adenosine receptor A2a [3] = molecular target: T3, Adenosine receptor A2a (Homo sapiens, UniProt P29274); assay: Displacement [3H]ZM241385 from adenosine A2A receptor in human HeLa cell membranes at 1 uM incubated for 30 mins by scintillation counting method relative to control
Adenosine receptor A1 = molecular target: T4, Adenosine receptor A1 (Homo sapiens, UniProt P30542); assay: Displacement [3H]DPCPX from human adenosine A1 receptor expressed in CHO cell membranes incubated for 60 mins by scintillation counting method
T4 sequence (P30542 whole entry): T1 sequence (whole entry)

Adenosine receptor A2b = molecular target: T5, Adenosine receptor A2b (Homo sapiens, UniProt P29275); assay: Displacement [3H]DPCPX from human adenosine A2B receptor expressed in HEK293 cell membranes incubated for 60 mins by scintillation counting method
T5 sequence (P29275 whole entry): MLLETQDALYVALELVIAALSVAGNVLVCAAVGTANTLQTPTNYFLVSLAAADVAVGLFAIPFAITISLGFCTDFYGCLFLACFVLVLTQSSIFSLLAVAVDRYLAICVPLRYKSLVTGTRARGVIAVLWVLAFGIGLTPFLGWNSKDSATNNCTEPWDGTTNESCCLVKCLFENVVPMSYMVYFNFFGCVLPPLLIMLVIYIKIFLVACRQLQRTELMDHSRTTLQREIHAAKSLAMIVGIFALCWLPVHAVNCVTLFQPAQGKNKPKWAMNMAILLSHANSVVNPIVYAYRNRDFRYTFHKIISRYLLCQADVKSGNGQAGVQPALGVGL

CYP2D6 [4] = molecular target: T6, CYP2D6 (Homo sapiens, UniProt P10635); assay: Inhibition of CYP2D6 (unknown origin) expressed in insect cell microsomes at 1 uM using dibenzylfluorescein substrate by fluorescence based assay relative to control; type: ADME; conditions: insect cell microsomes expressing CYP2D6, probe dibenzylfluorescein
Cytochrome P450 3A4 = Cytochrome P450 3A4 (Homo sapiens, UniProt P08684); assay: Inhibition of CYP3A4 (unknown origin) expressed in insect cell microsomes using dibenzylfluorescein substrate by fluorescence based assay; type: ADME
CYP2D6 [5] = molecular target: T6, CYP2D6; assay: Inhibition of CYP2D6 (unknown origin) expressed in insect cell microsomes at 10 uM using dibenzylfluorescein substrate by fluorescence based assay relative to control; type: ADME; conditions: insect cell microsomes expressing CYP2D6, probe dibenzylfluorescein
Adenosine receptor A2a [6] = molecular target: T3, Adenosine receptor A2a; assay: Displacement [3H]ZM241385 from adenosine A2A receptor in human HeLa cell membranes incubated for 30 mins by scintillation counting method

T6 sequence (P10635 whole entry): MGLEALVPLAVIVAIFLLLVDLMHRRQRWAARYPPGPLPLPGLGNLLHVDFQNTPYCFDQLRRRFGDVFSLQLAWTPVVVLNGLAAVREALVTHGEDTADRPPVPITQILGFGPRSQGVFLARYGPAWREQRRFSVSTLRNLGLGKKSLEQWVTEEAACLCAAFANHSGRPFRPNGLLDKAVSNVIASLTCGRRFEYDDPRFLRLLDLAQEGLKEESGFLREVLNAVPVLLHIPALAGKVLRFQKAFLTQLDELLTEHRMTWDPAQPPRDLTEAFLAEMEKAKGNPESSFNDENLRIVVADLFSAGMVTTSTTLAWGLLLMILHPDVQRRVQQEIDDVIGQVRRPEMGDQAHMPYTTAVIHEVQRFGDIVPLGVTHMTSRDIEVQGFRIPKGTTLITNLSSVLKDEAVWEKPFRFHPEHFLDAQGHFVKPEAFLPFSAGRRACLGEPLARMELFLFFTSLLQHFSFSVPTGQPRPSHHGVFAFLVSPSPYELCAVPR
Chain of Cytochrome P450 3A4 (P08684 whole entry): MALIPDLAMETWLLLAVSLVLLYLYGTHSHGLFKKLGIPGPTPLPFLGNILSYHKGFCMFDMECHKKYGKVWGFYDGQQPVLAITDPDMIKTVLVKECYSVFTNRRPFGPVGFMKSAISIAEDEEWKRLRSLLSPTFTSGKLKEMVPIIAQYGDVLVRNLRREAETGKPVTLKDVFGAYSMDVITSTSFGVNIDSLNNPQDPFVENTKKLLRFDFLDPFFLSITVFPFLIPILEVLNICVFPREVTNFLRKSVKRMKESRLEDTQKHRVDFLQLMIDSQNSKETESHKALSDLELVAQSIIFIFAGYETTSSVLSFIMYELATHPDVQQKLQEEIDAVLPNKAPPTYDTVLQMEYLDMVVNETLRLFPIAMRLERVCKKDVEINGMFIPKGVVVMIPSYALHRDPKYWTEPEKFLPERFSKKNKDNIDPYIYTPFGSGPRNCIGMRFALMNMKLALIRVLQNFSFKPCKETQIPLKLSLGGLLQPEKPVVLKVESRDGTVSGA
T3 sequence (P29274 whole entry): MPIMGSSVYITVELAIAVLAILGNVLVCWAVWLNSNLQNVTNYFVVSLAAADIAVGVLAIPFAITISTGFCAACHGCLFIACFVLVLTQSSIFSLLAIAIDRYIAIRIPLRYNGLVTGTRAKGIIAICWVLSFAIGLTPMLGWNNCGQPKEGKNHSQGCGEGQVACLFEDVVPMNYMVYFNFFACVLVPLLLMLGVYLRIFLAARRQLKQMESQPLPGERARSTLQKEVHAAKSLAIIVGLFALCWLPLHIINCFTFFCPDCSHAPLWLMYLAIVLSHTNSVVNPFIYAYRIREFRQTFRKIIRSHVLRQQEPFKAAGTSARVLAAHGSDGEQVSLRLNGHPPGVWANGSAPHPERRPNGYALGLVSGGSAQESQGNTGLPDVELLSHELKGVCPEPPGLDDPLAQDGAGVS

Structure (SMILES)	inhibition [1] [%]	inhibition [2] [%]	inhibition (Adenosine receptor A2a [3]) [%]	Ki (Adenosine receptor A1) [nM]	Ki (Adenosine receptor A2b) [nM]	inhibition at 1 µM (CYP2D6 [4]) [%]	IC50 (Cytochrome P450 3A4) [nM]	inhibition at 10 µM (CYP2D6 [5]) [%]	Ki (Adenosine receptor A2a [6]) [nM]
CCOC(=O)C1=C(C)Nc2nc3ccccc3n2C1c1ccc(C)o1 (racemic)	14	3	1	–	–	–	–	–	–
CC1=C(C(=O)OC(C)C)C(c2cscn2)n2c(nc3ccccc32)N1 (racemic)	1	18	3	–	–	–	–	–	–
CCOC(=O)C1=C(C)Nc2nc3ccccc3n2C1c1cn[nH]c1 (racemic)	–	1	28	14.8	92.6	–	–	–	–
CCOC(=O)C1=C(C)Nc2nc3ccccc3n2C1c1cc[nH]c1 (racemic)	26	1	7	–	449	–	–	–	–
CCOC(=O)C1=C(C)Nc2nc3ccccc3n2C1c1cncs1 (racemic)	32	1	1	–	215	–	–	–	–
CC1=C(C(=O)OC(C)C)C(c2ccns2)n2c(nc3ccccc32)N1 (racemic)	24	4	18	–	175	–	–	–	–
CC1=C(C(=O)OC(C)C)C(c2cocn2)n2c(nc3ccccc32)N1 (racemic)	7	16	19	–	43.4	23	5920	43	–
CCOC(=O)C1=C(C)Nc2nc3ccccc3n2C1c1nccs1 (racemic)	3	1	–	–	388	–	–	–	3
CC1=C(C(=O)OC(C)C)C(c2cncs2)n2c(nc3ccccc32)N1 (racemic)	2	5	3	–	68.3	–	–	–	–
CCOC(=O)C1=C(C)Nc2nc3ccccc3n2C1c1cnoc1 (racemic)	21	13	30	–	23.4	6	4920	37	–
CCOC(=O)C1=C(C)Nc2nc3ccccc3n2C1c1ccon1 (racemic)	2	3	1	–	789	–	–	–	–
CC1=C(C(=O)OC(C)C)C(c2ccccc2)n2c(nc3ccccc32)N1 (racemic)	9	9	3	–	–	–	–	–	–
CCOC(=O)C1=C(C)Nc2nc3ccccc3n2C1c1ccccc1 (racemic)	12	15	9	–	–	–	–	–	–
CCOC(=O)C1=C(C)Nc2nc3ccccc3n2C1c1ncco1 (racemic)	8	10	–	–	769	–	–	–	2
CC1=C(C(=O)OC(C)C)C(c2ccc(C)o2)n2c(nc3ccccc32)N1 (racemic)	14	1	3	–	–	–	–	–	–
CC1=C(C(=O)OC(C)C)C(c2ccon2)n2c(nc3ccccc32)N1 (racemic)	1	4	2	–	721	–	–	–	–
CC1=C(C(=O)OC(C)C)C(c2ccc[nH]2)n2c(nc3ccccc32)N1 (racemic)	38	1	19	–	31.3	–	–	–	–
CC1=C(C(=O)OC(C)C)C(c2ccoc2)n2c(nc3ccccc32)N1 (racemic)	–	–	22	–	–	8	2680	31	–
CC1=C(C(=O)OC(C)C)C(c2cc[nH]c2)n2c(nc3ccccc32)N1 (racemic)	19	2	1	–	517	–	–	–	–
CC1=C(C(=O)OC(C)C)Cn2c(nc3ccccc32)N1	31	13	4	–	–	–	–	–	–
CC1=C(C(=O)OC(C)C)C(c2cnco2)n2c(nc3ccccc32)N1 (racemic)	–	39	38	301	–	–	–	–	–

Structure (SMILES)	inhibition [1] [%]	inhibition [2] [%]	inhibition (Adenosine receptor A2a [3]) [%]	Ki (Adenosine receptor A1) [nM]	Ki (Adenosine receptor A2b) [nM]	inhibition at 1 µM (CYP2D6 [4]) [%]	IC50 (Cytochrome P450 3A4) [nM]	inhibition at 10 µM (CYP2D6 [5]) [%]	Ki (Adenosine receptor A2a [6]) [nM]
CCOC(=O)C1=C(C)Nc2nc3ccccc3n2C1c1cnsc1 (racemic)	20	14	11	–	–	–	–	–	–
CCOC(=O)C1=C(C)Nc2nc3ccccc3n2C1	34	9	11	–	–	–	–	–	–
CCOC(=O)C1=C(C)Nc2nc3ccccc3n2C1C1CCCC1 (racemic)	11	17	10	–	–	–	–	–	–
CC1=C(C(=O)OC(C)C)C(c2cnoc2)n2c(nc3ccccc32)N1 (racemic)	1	5	2	–	29.6	–	–	–	–
CC1=C(C(=O)OC(C)C)C(C2CCCC2)n2c(nc3ccccc32)N1 (racemic)	14	23	2	–	–	–	–	–	–
CC1=C(C(=O)OC(C)C)C(c2cc[nH]n2)n2c(nc3ccccc32)N1 (racemic)	1	2	7	–	1100	–	–	–	–
CC1=C(C(=O)OC(C)C)C(c2cnsc2)n2c(nc3ccccc32)N1 (racemic)	9	14	11	–	278	–	–	–	–
CC1=C(C(=O)OC(C)C)C(c2ccno2)n2c(nc3ccccc32)N1 (racemic)	37	1	7	–	1030	–	–	–	–
CCOC(=O)C1=C(C)Nc2nc3ccccc3n2C1c1cc[nH]n1 (racemic)	8	1	11	–	707	–	–	–	–
CCOC(=O)C1=C(C)Nc2nc3ccccc3n2C1c1ccns1 (racemic)	–	8	7	20.2	98.7	–	–	–	–
CC1=C(C(=O)OC(C)C)C(c2ncco2)n2c(nc3ccccc32)N1 (racemic)	1	10	–	–	708	–	–	–	1
CC1=C(C(=O)OC(C)C)C(c2c[nH]cn2)n2c(nc3ccccc32)N1 (racemic)	5	8	4	–	–	–	–	–	–
CC1=C(C(=O)OC(C)C)C(c2ncc[nH]2)n2c(nc3ccccc32)N1 (racemic)	2	2	4	–	–	–	–	–	–
CCOC(=O)C1=C(C)Nc2nc3ccccc3n2C1c1ncc[nH]1 (racemic)	6	1	–	–	402	8	4540	18	5
CCOC(=O)C1=C(C)Nc2nc3ccccc3n2C1c1ccc[nH]1 (racemic)	45	9	2	–	49.6	–	–	–	–
CC1=C(C(=O)OC(C)C)C(c2cn[nH]c2)n2c(nc3ccccc32)N1 (racemic)	–	6	40	8.3	340	–	–	–	–
CCOC(=O)C1=C(C)Nc2nc3ccccc3n2C1c1cscn1 (racemic)	1	2	1	–	–	–	–	–	–
CCOC(=O)C1=C(C)Nc2nc3ccccc3n2C1c1ccno1 (racemic)	1	11	1	–	714	–	–	–	–
CCOC(=O)C1=C(C)Nc2nc3ccccc3n2C1c1c[nH]cn1 (racemic)	7	3	16	–	–	–	–	–	–
CC1=C(C(=O)OC(C)C)C(c2ccco2)n2c(nc3ccccc32)N1 (racemic)	–	–	25	–	–	5	2900	35	–
CC1=C(C(=O)OC(C)C)C(c2nccs2)n2c(nc3ccccc32)N1 (racemic)	5	20	4	–	753	–	–	–	–
